Test systems include PC-3 prostate; HL-60(TB) leukemia; OVCAR-4 ovarian; SF-268 CNS; MDA-MB-231 breast; NCI-H226 lung; RXF 393 renal; SK-OV-3 ovarian; HOP-92 NSCLC; SK-MEL-5 melanoma.
What all share (assay): NCI anticancer screen, dose series, 48 h

Values joined by “and” are separate entries in the source; they are usually repeats but may differ in a detail not shown here. Identical values can stand only once.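 Grown in 96-well plates, cells were treated for 48 hours with each compound at five concentrations. Insufficient inhibition: endpoint recorded as highest concentration tested. GI50: concentration for 50% inhibition of growth. TGI marks complete inhibition of growth.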

For the compound `COCCOCCOCCOCCOC(=O)OC[n+]1ccc(NC(=NCCCCCCOc2ccc(Cl)cc2)NC#N)cc1`, the GI50 was under 0.01 µM in the assay with PC-3 prostate; 3.25 µM with HL-60(TB) leukemia; 6.47 µM with OVCAR-4 ovarian; 11.9 µM with SF-268 CNS; 5.19 µM in the assay on MDA-MB-231 breast; 12.7 µM with NCI-H226 lung. For the same compound, the GI50 in the assay on RXF 393 renal is 7.44 µM; in the assay with SK-OV-3 ovarian it was 11.3 µM; with HOP-92 NSCLC, 1.7 µM; in the assay on SK-MEL-5 melanoma, 1.43 µM. Besides, the TGI is 14.2 µM in the assay on PC-3 prostate; 10.7 µM with HL-60(TB) leukemia; 19.9 µM in the assay with OVCAR-4 ovarian; 26.9 µM in the assay on SF-268 CNS; 23.7 µM in the assay on MDA-MB-231 breast; 30.4 µM in the assay with NCI-H226 lung. Also, the TGI in the assay with RXF 393 renal amounted to 22.3 µM; in the assay with SK-OV-3 ovarian, 23.6 µM; with HOP-92 NSCLC it was 16.3 µM; in the assay with SK-MEL-5 melanoma, 11.6 µM.

As for `[Cl][Cu][Cl]`, the GI50 in the assay with PC-3 prostate, with HL-60(TB) leukemia, with OVCAR-4 ovarian, in the assay on SF-268 CNS, in the assay on MDA-MB-231 breast and in the assay with NCI-H226 lung was over 10 µM in each case. Further, the GI50 in the assay with RXF 393 renal, in the assay with SK-OV-3 ovarian, in the assay with HOP-92 NSCLC and in the assay with SK-MEL-5 melanoma was over 10 µM each time. Further, the TGI with PC-3 prostate, with HL-60(TB) leukemia, with OVCAR-4 ovarian, in the assay on SF-268 CNS, in the assay with MDA-MB-231 breast and with NCI-H226 lung was over 10 µM each time. Besides, the TGI in the assay on RXF 393 renal, in the assay on SK-OV-3 ovarian, in the assay with HOP-92 NSCLC and in the assay on SK-MEL-5 melanoma was over 10 µM in each case.

Turning to `COc1ccc(S(=O)(=O)N2CCNCC2)cc1OC`, the GI50 in the assay with PC-3 prostate, in the assay on HL-60(TB) leukemia, in the assay with OVCAR-4 ovarian, with SF-268 CNS, in the assay with MDA-MB-231 breast and with NCI-H226 lung was over 100 µM in each case. Also, the GI50 with RXF 393 renal, in the assay on SK-OV-3 ovarian, with HOP-92 NSCLC and with SK-MEL-5 melanoma was over 100 µM in each case. Moreover, the TGI with PC-3 prostate, in the assay on HL-60(TB) leukemia, in the assay with OVCAR-4 ovarian, in the assay with SF-268 CNS, in the assay with MDA-MB-231 breast and in the assay on NCI-H226 lung was over 100 µM throughout. The TGI in the assay with RXF 393 renal, in the assay with SK-OV-3 ovarian, with HOP-92 NSCLC and in the assay on SK-MEL-5 melanoma was over 100 µM in each case.

As to `N#CCNC(=O)c1ccc(-c2ccnc(Nc3ccc(N4CCOCC4)cc3)n2)cc1`, the GI50 was 3.77 µM and 1.77 µM in the assay on PC-3 prostate; 4.79 µM and 3.14 µM in the assay on HL-60(TB) leukemia; 5.94 µM and 13.3 µM in the assay on OVCAR-4 ovarian; 1.78 µM and 1.41 µM in the assay with SF-268 CNS; 2.26 µM and 2.19 µM in the assay with MDA-MB-231 breast; 0.754 µM and 0.531 µM with NCI-H226 lung. Further, the GI50 in the assay with RXF 393 renal is 1.11 µM and 0.345 µM; in the assay with SK-OV-3 ovarian, 4.04 µM and 3.83 µM; in the assay on HOP-92 NSCLC it was 0.511 µM and 0.153 µM; in the assay with SK-MEL-5 melanoma, 4.61 µM. Also, the TGI in the assay on PC-3 prostate was > 10 µM and 38.8 µM; with HL-60(TB) leukemia it was over 100 µM; with OVCAR-4 ovarian, > 10 µM and 44.9 µM; with SF-268 CNS, > 10 µM and 17.7 µM; in the assay on MDA-MB-231 breast it was over 100 µM; with NCI-H226 lung, 7.01 µM and 21.1 µM. For the same compound, the TGI in the assay on RXF 393 renal is 3.09 µM and 1.7 µM; in the assay with SK-OV-3 ovarian, > 10 µM and 24.7 µM; with HOP-92 NSCLC, 9.61 µM and 10.7 µM; with SK-MEL-5 melanoma, 38.7 µM.

As to `C=CCN(CC=C)C(=O)[C@H](CC)[C@@H]1CC[C@@H](C)[C@@H]([C@H](C)[C@@H](O)[C@@H](C)C(=O)[C@H](CC)C2O[C@]3(C=C[C@@H](O)[C@]4(CC[C@@](C)([C@H]5CC[C@](O)(CC)[C@H](C)O5)O4)O3)[C@H](C)C[C@@H]2C)O1` (stereo not given in full), the GI50 was 2.31 µM with PC-3 prostate; 2.09 µM in the assay with HL-60(TB) leukemia; 2.63 µM in the assay on OVCAR-4 ovarian; 3.27 µM in the assay on SF-268 CNS; 1.77 µM with MDA-MB-231 breast; 1.86 µM with NCI-H226 lung. The GI50 was 1.57 µM with RXF 393 renal, 3.51 µM in the assay on SK-OV-3 ovarian, 1.39 µM in the assay on HOP-92 NSCLC and 1.72 µM in the assay with SK-MEL-5 melanoma. Further, the TGI with PC-3 prostate amounted to 12.4 µM; in the assay with HL-60(TB) leukemia it was 4.76 µM; in the assay with OVCAR-4 ovarian it was 10.1 µM; in the assay with SF-268 CNS, 34.8 µM; with MDA-MB-231 breast, 3.84 µM; in the assay with NCI-H226 lung, 4.92 µM. In addition, the TGI is 3.47 µM in the assay on RXF 393 renal, over 100 µM in the assay with SK-OV-3 ovarian, 4.31 µM in the assay on HOP-92 NSCLC and 3.15 µM in the assay with SK-MEL-5 melanoma.

As for `O=[N+]([O-])c1cc(Cc2cc([N+](=O)[O-])c3cccnc3c2O)c(O)c2ncccc12`, the TGI in the assay with PC-3 prostate is 23.4 µM; in the assay with HL-60(TB) leukemia it was 5.35 µM; with OVCAR-4 ovarian, over 74.1 µM; with SF-268 CNS it was over 43.8 µM; in the assay on MDA-MB-231 breast it was 25.9 µM; with NCI-H226 lung it was 43.5 µM. Further, the TGI was 18 µM in the assay on RXF 393 renal, 37.5 µM in the assay with SK-OV-3 ovarian, 37.1 µM in the assay with HOP-92 NSCLC and 24.5 µM in the assay with SK-MEL-5 melanoma.

In the case of `COc1cc2c(cc1NC(=O)C(Cl)Cl)-c1ccc(NC(=O)C(Cl)Cl)cc1C2`, the GI50 in the assay with PC-3 prostate is 0.606 µM; with HL-60(TB) leukemia, 0.568 µM; with OVCAR-4 ovarian, 1.04 µM; in the assay with SF-268 CNS, 0.384 µM; with MDA-MB-231 breast it was 0.499 µM; in the assay with NCI-H226 lung, 6.04 µM. Moreover, the GI50 was 0.429 µM in the assay on RXF 393 renal, 6.67 µM in the assay with SK-OV-3 ovarian, 1.15 µM with HOP-92 NSCLC and 4.35 µM with SK-MEL-5 melanoma. For the same compound, the TGI is 1.76 µM with PC-3 prostate; 3.37 µM in the assay on HL-60(TB) leukemia; 5.56 µM in the assay on OVCAR-4 ovarian; 1.94 µM in the assay on SF-268 CNS; 2 µM in the assay with MDA-MB-231 breast; 17.1 µM with NCI-H226 lung. The TGI in the assay on RXF 393 renal is 1.66 µM; in the assay with SK-OV-3 ovarian it was 20.6 µM; with HOP-92 NSCLC, 3.54 µM; with SK-MEL-5 melanoma, 18.3 µM.

Turning to `O=C1C(Sc2ccc3ccccc3c2)=C(Sc2ccc3ccccc3c2)C(=O)c2ccccc21`, the TGI in the assay on PC-3 prostate is 31.8 µM; in the assay with HL-60(TB) leukemia, 11.2 µM; in the assay with OVCAR-4 ovarian, 15.2 µM; with SF-268 CNS, 28.7 µM; in the assay on MDA-MB-231 breast it was 18.3 µM; in the assay with NCI-H226 lung, 37.4 µM. Also, the TGI in the assay with RXF 393 renal is 32.6 µM; in the assay on SK-OV-3 ovarian it was 68.2 µM; in the assay on HOP-92 NSCLC it was 22.3 µM; in the assay with SK-MEL-5 melanoma, 12.4 µM.

Source of the values: PubChem BioAssay (NCI).
